Consider ten molecules from PubChem BioAssay AID1259411 (Chemical Carcinogenesis Research Information System (CCRIS), 2018).

This data set has as its system rodent carcinogenicity bioassays, tumor incidence. Briefly: CCRIS carcinogenicity studies. In short, it runs like this:
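NCI-built, expert-reviewed records of carcinogenicity and related test outcomes (mutagenicity, tumor promotion/inhibition) compiled from published and report sources, historical span 1985-2011, not updated.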

Structures are written as SMILES. Active and inactive are the calls of the source. No rule for the calls is given here.

As for `CC(C)(C)c1cc([N+](=O)[O-])cc([N+](=O)[O-])c1OS(C)(=O)=O`, the carcinogen call is “inactive; negative” (Species: RAT, Strain/Sex: SPRAGUE-DAWLEY/FEMALE, Route: ORAL, Dose: 0, 25, 100, 400 PPM IN DIET FOR 1 YR (STUDY DURATION: 1 YR), Dose: 0, 25, 100, 400 PPM IN DIET FOR 1 YR (STUDY DURATION: 1 YR)) and “inactive; negative” (Species: RAT, Strain/Sex: SPRAGUE-DAWLEY/MALE, Route: ORAL, Dose: 0, 25, 100, 400 PPM IN DIET FOR 1 YR (STUDY DURATION: 1 YR), Dose: 0, 25, 100, 400 PPM IN DIET FOR 1 YR (STUDY DURATION: 1 YR)).
Consider `CCCCN(N=O)C(=O)CCC`, for which the carcinogen call (Species: RAT, Strain/Sex: F344/MALE,FEMALE, Route: SUBCUTANEOUS, Dose: 38 UMOL/KG IN OLIVE OIL 1/WK FOR 10 WK, Tumor Site: Type of Lesion: INJECTION SITE: MALIGNANT FIBROUS HISTIOCYTOMA, LUNG: ADENOMA) is “active; positive”.
For `C[C@]12CC[C@H]3[C@@H](CCC4=CC(=O)CC[C@@]43C)[C@@H]1CC[C@@H]2O`, the carcinogen call by setting is: (Species: MOUSE, Route: SUBCUTANEOUS IMPLANT, Tumor Site: Type of Lesion: MAMMARY GLAND, VAGINA) “active; positive”; (Species: MOUSE, Route: SUBCUTANEOUS, Tumor Site: Type of Lesion: GENITAL TRACT) “active; positive”.
As for `CN(N=O)C(CCCO)c1cccnc1` (stereo not given), the carcinogen call (Species: MOUSE, Strain/Sex: STRAIN-A/FEMALE, Route: INTRAPERITONEAL, Dose: 0, 200 UMOL TOTAL DOSE ADMINISTERED IN SUBDOSES 3/WK FOR 7 WK (STUDY DURATION: 37 WK)) was “inactive; negative”.
On to `N=C1C=CC(=C(c2ccc(N)cc2)c2ccc(N)cc2)C=C1`, for which the carcinogen call is “active; positive” (Species: MOUSE, Strain/Sex: B6C3F1/FEMALE, Route: ORAL, Dose: 0, 500, 1000 PPM IN DIET FOR 103 WK (STUDY DURATION: 110-113 WK), Dose: 0, 500, 1000 PPM IN DIET FOR 103 WK (STUDY DURATION: 110-113 WK), Tumor Site: Type of Lesion: LUNG: ALVEOLAR/BRONCHIOLAR ADENOMA, ALVEOLAR/BRONCHIOLAR ADENOMA OR CARCINOMA;LIVER: HEPATOCELLULAR ADENOMA, HEPATOCELLU); “active; positive” (Species: MOUSE, Strain/Sex: B6C3F1/MALE, Route: ORAL, Dose: 0, 500, 1000 PPM IN DIET FOR 103 WK (STUDY DURATION: 113-115 WK), Dose: 0, 500, 1000 PPM IN DIET FOR 103 WK (STUDY DURATION: 113-115 WK), Tumor Site: Type of Lesion: LIVER: HEPATOCELLULAR CARCINOMA, HEPATOCELLULAR ADENOMA OR CARCINOMA); “active; positive” (Species: RAT, Strain/Sex: F344/FEMALE, Route: ORAL, Dose: 0, 500, 1000 PPM IN DIET FOR 103 WK (STUDY DURATION: 110-113 WK), Dose: 0, 500, 1000 PPM IN DIET FOR 103 WK (STUDY DURATION: 110-113 WK), Tumor Site: Type of Lesion: INTEGUMENTARY SYSTEM (SUBCUTANEOUS TISSUE): FIBROMA, FIBROMA OR FIBROSARCOMA, FIBROMA OR SARCOMA OR FIBROSARCOMA, MAMMAR); “active; positive” (Species: RAT, Strain/Sex: F344/MALE, Route: ORAL, Dose: 0, 1000, 2000 PPM IN DIET FOR 103 WK (STUDY DURATION: 110-113 WK), Dose: 0, 1000, 2000 PPM IN DIET FOR 103 WK (STUDY DURATION: 110-113 WK), Tumor Site: Type of Lesion: INTEGUMENTARY SYSTEM (SKIN): SQUAMOUS CELL CARCINOMA, SQUAMOUS CELL PAPILLOMA OR CARCINOMA, TRICHOEPITHELIOMA, SEBACEOUS); “inactive; negative” (Species: RAT, Strain/Sex: SPRAGUE-DAWLEY/FEMALE, Route: GAVAGE, Dose: 0, 300 MG/KG BW 2/WK FOR 18 WK WITH A 1 WK REST AFTER 12 WK THEN STARTING AT 19 WK 150 MG/KG BW 2/WK FOR DURATION OF STU); “inactive; negative” (Species: RAT, Strain/Sex: SPRAGUE-DAWLEY/MALE, Route: GAVAGE, Dose: 0, 300 MG/KG BW 2/WK FOR 18 WK WITH A 1 WK REST AFTER 12 WK THEN STARTING AT 19 WK 150 MG/KG BW 2/WK FOR DURATION OF STU).
For the molecule `c1ccc2[nH]c(-c3cscn3)nc2c1`, the carcinogen call was “inactive; negative” (Species: MOUSE, Strain/Sex: CD-1/FEMALE, Route: ORAL, Dose: 0, 0.031, 0.125, 0.5% IN DIET FOR 78 WK (STUDY DURATION: 78 WK), Dose: 0, 0.031, 0.125, 0.5% IN DIET FOR 78 WK (STUDY DURATION: 78 WK)); “inactive; negative” (Species: MOUSE, Strain/Sex: CD-1/MALE, Route: ORAL, Dose: 0, 0.031, 0.125, 0.5% IN DIET FOR 78 WK (STUDY DURATION: 78 WK), Dose: 0, 0.031, 0.125, 0.5% IN DIET FOR 78 WK (STUDY DURATION: 78 WK)); “inactive; negative” (Species: MOUSE, Strain/Sex: ICR/MALE, Route: ORAL, Dose: 0, 0.8, 1.2, 1.6% IN DIET FOR 44 WK (STUDY DURATION: 44 WK), Dose: 0, 0.8, 1.2, 1.6% IN DIET FOR 44 WK (STUDY DURATION: 44 WK)); “inactive; negative” (Species: RAT, Strain/Sex: F344/FEMALE, Route: ORAL, Dose: 0, 0.05, 0.1, 0.2, 0.4% IN DIET FOR 104 WK (STUDY DURATION: 104 WK), Dose: 0, 0.05, 0.1, 0.2, 0.4% IN DIET FOR 104 WK (STUDY DURATION: 104 WK)); “inactive; negative” (Species: RAT, Strain/Sex: F344/MALE, Route: ORAL, Dose: 0, 0.05, 0.1, 0.2, 0.4% IN DIET FOR 104 WK (STUDY DURATION: 104 WK), Dose: 0, 0.05, 0.1, 0.2, 0.4% IN DIET FOR 104 WK (STUDY DURATION: 104 WK)).
As to `ClCOCCOCCl`, the carcinogen call is “active; positive” (Species: MOUSE, Strain/Sex: ICR/HA SWISS/FEMALE, Route: DERMAL, Dose: 0, 1 MG IN 0.1 ML CYCLOHEXANE 3/WK FOR 502 D (STUDY DURATION: 570 D), Tumor Site: Type of Lesion: SKIN: PAPILLOMA, SKIN: SQUAMOUS CARCINOMA); “active; positive” (Species: MOUSE, Strain/Sex: ICR/HA SWISS/FEMALE, Route: INTRAPERITONEAL, Dose: 0, 0.3 MG IN 0.05 ML TRICAPRYLIN 1/WK FOR 546 D (STUDY DURATION: 570 D), Tumor Site: Type of Lesion: PERITONEUM: SARCOMA); “active; positive” (Species: MOUSE, Strain/Sex: ICR/HA SWISS/FEMALE, Route: SUBCUTANEOUS, Dose: 0, 0.3 MG IN 0.05 ML TRICAPRYLIN 1/WK FOR 569 D (STUDY DURATION: 570 D), Tumor Site: Type of Lesion: INJECTION SITE: SARCOMA).
As to `Nc1ccc(N)cc1`, the carcinogen call is “inactive; negative” (Species: MOUSE, Strain/Sex: B6C3F1/FEMALE, Route: ORAL, Dose: 0, 625, 1250 PPM IN DIET, Dose: 0, 625, 1250 PPM IN DIET); “inactive; negative” (Species: MOUSE, Strain/Sex: B6C3F1/MALE, Route: ORAL, Dose: 0, 625, 1250 PPM IN DIET, Dose: 0, 625, 1250 PPM IN DIET); “inactive; negative” (Species: RAT, Strain/Sex: F344/FEMALE, Route: ORAL, Dose: 0, 625, 1250 PPM IN DIET, Dose: 0, 625, 1250 PPM IN DIET); “inactive; negative” (Species: RAT, Strain/Sex: F344/MALE, Route: ORAL, Dose: 0, 625, 1250 PPM IN DIET, Dose: 0, 625, 1250 PPM IN DIET).
On to `CC(O)CCl` (stereo not given), for which the carcinogen call by setting is: (Species: MOUSE, Strain/Sex: B6C3F1/FEMALE, Route: ORAL, Dose: 0, 250, 500, 1000 PPM IN DRINKING WATER FOR DURATION OF STUDY (STUDY DURATION: 2 YR), Dose: 0, 250, 500, 1000 PPM IN DRINKING WATER FOR DURATION OF STUDY (STUDY DURATION: 2 YR)) “inactive; negative”; (Species: MOUSE, Strain/Sex: B6C3F1/MALE, Route: ORAL, Dose: 0, 250, 500, 1000 PPM IN DRINKING WATER FOR DURATION OF STUDY (STUDY DURATION: 2 YR), Dose: 0, 250, 500, 1000 PPM IN DRINKING WATER FOR DURATION OF STUDY (STUDY DURATION: 2 YR)) “inactive; negative”; (Species: RAT, Strain/Sex: F344/FEMALE, Route: ORAL, Dose: 10, 150, 325, 650 PPM IN DRINKING WATER FOR DURATION OF STUDY (STUDY DURATION: 2 YR), Dose: 10, 150, 325, 650 PPM IN DRINKING WATER FOR DURATION OF STUDY (STUDY DURATION: 2 YR)) “inactive; negative”; (Species: RAT, Strain/Sex: F344/MALE, Route: ORAL, Dose: 0, 150, 325, 650 PPM IN DRINKING WATER FOR DURATION OF STUDY (STUDY DURATION: 2 YR), Dose: 0, 150, 325, 650 PPM IN DRINKING WATER FOR DURATION OF STUDY (STUDY DURATION: 2 YR)) “inactive; negative”.
Take `O=C(O)c1cc2ccccc2c(N=Nc2ccc3ccccc3c2S(=O)(=O)O)c1O`: the carcinogen call runs as follows: (Species: MOUSE, Strain/Sex: SWISS-WEBSTER/FEMALE, Route: DERMAL, Dose: 0, 1% IN 0.1 ML 0.1% SODIUM LAURYL SULFATE 1/WK FOR 18 MO (STUDY DURATION: 18 MO)) “inactive; negative”; (Species: MOUSE, Strain/Sex: SWISS-WEBSTER/MALE, Route: DERMAL, Dose: 0, 1% IN 0.1 ML 0.1% SODIUM LAURYL SULFATE 1/WK FOR 18 MO (STUDY DURATION: 18 MO)) “inactive; negative”.
